Reference: patent US20230295255A1, “ANNEXIN A1-DERIVED POLYPEPTIDE ANALOGUES” (Reso Ther Pharma A/S, priority 2020, published 2023)
Each block holds one molecule with its values, some of them ahead of it. Ends that are not written are not given here.

Assays:
[1] = Determination of terminal half times after intravenous injection in beagle dogs (plasma, LC/MS-MS); type: in vivo; conditions: dog; for half-life: in vivo, intravenous, read-out: terminal half time (t½)
Method: 6 beagle dogs, 3 males and 3 females, HsdRcc:DOBE from Marshall BioResources, F-03800 Gannat, France. Age 5-6 months, weight 6-8 kg were kept 21° C.±3° C. with relative humidity of 55%±15% with 12 hours light and 12 hours darkness (Light on from 06:00 to 18:00 h). Male and females kept separate.
Following a pre-treatment period of a minimum of two weeks the animals received an intravenous injection of test item through the cephalic vein given over 5 min using a butterfly syringe with volume adjusted according to the most recent body weight data. The butterfly was flushed with 5 ml 0.9% NaCl immediately after injection. The dose volume was 5 mL/kg body weight. One male and one female were treated at each dose level.
The following doses of test item was given: 2, 6 and 10 mg/kg in 5% glucose; 1.0 mM acetic acid. One male and one female were treated on each dose level. For the control peptide the doses given were: 1, 3 and 10 mg/kg.
(§1) Blood samples for determination of plasma levels of test item of approximately 0.4 mL per sample was drawn from the contralateral cephalic vein. The blood was sampled into a collecting tube containing K2EDTA as anticoagulant. After collection, the collecting tube was immediately labelled and placed in ice water (sufficient to cover the blood entirely) until centrifugation. Within 20 minutes after blood sampling, blood was centrifuged for 8 minutes at 2150 G, at +4° C.). The entire plasma sample was transferred to Eppendorf microcentrifuge tubes (Polypropylene tubes with Eppendorf Safe-Lock lid, Sigma, Denmark). Within 30 minutes after centrifugation, plasma was snap frozen on dry ice and stored at −70° C. or below.
Plasma concentration of test item and control peptide was measured by use of LC/MS-MS.

[2] = Determination of terminal half times after intravenous injection in rats (plasma, LC/MS-MS); set-up: species or system Male Wistar rats; conditions: in vivo, rat, read-out: terminal half time (t½)
Method: Male Wistar rats (Crl:WI(Han), Charles River, Germany, weight 300 g±20 g were kept in transparent polycarbonate cages (floor area: 1500 cm^2—height: at least 21 cm) with two in each cage, males and females separated at a temperature of 21° C.±3° C. and relative humidity of 55%±15% with a 12 hours light and 12 hours darkness (Light on from 06:00 to 18:00 h). Following a minimum of five days acclimatization the animals received an intravenous injection of test item through the tail vein given over 60 seconds using a butterfly syringe with volume adjusted according to the most recent body weight data. The butterfly was flushed with 0.4 mL 0.9% NaCl immediately after injection. […]. The dose volume was 5 mL/kg body weight.
The following doses of test item was given: 0.1, 1 and 10 mg/kg in 5% glucose; 1.0 mM acetic acid. Six animals were treated on each dose level.
as §1, with “On the day of dosing blood” for “Blood”, “samples” for “samples for determination of plasma levels of test item”, “mL” for “mL per sample”, “using” for “from”, “sublingual method.” for “contralateral cephalic vein.”
Time point for blood sampling: 2, 5, 10 and 20 min from completion of dosing.
Plasma concentration of the test item was measured by use of LC/MS-MS.

[3] = Body weight and liver weight in experimental model of Nonalcoholic Steatohepatitis (HFD mice); type: in vivo, C57BL/6 mice; conditions: end of 6 weeks treatment, i.p. once daily 5 days a week, AnxA1 1 mg/kg/day, Test Item A 250 μg/kg/day
Method: (§2) Male C57BL/6 mice were housed (7-9/cage) in pathogen free conditions and maintained at constant room temperature (20-22° C.) with free access to water and food under a 12 h light/dark cycle (lights on at 07:00 h). […] This diet leads within 16 weeks to steatohepatitis associated with obesity and insulin resistance, which mimics what is seems in humans suffering from NASH. The control group received ad libitum normal chow for 16 weeks. The body weight for each mouse was recorded weekly by using a dedicated digital balance (each Friday afternoon—starting from 5 pm).
(§3) Mice were divided in experimental groups as below: • A: Non HFD: Time control group: Had access to standard chow diet throughout the study period • B: Vehicle: Vehicle treatment group: Received HFD+Vehicle treatment (sterile saline injections) once daily • C: AnxA1: AnnexinA1 treatment group: Received HFD+Annexin A1 full-length protein at a dose of 1 mg/kg/day. • D: Test Item A: Test compound A group: Received HDF+250 μg/kg/day of Test compound A=[…] (SEQ ID NO:4); (AnxA1 (2-46 Val24Leu).
Treatment was commended following 10 weeks HFD and was given as a once daily intraperitoneal given 5 days a week (Monday-Friday) for 6 weeks. The animals were kept on HFD during the 6 weeks treatment period. […]

[4] = Liver injury assessment: blood levels of alanine aminotransferase (ALT) in HFD NASH model; type: in vivo, C57BL/6 mice; conditions: HFD mice, after 6 weeks treatment, i.p.; AnxA1 1 mg/kg/day, Test Item A 250 μg/kg/day
Method: as §2
Liver injury was assessed before and after treatment with test compound, control compound or vehicle by evaluating blood levels of alanine aminotransferase (ALT) with a spectrophotometric kit. Blood sampling was carried out by retro-orbital bleeding.
as §3, with “Val24Leu). […]” for “Val24Leu).”

TNF-α = test: Low grade inflammation: liver expression level of TNF-α by real time PCR in HFD NASH model; type: in vivo, C57BL/6 mice; conditions: HFD mice, AnxA1 1 mg/kg/day, Test Item A 250 μg/kg/day
Method: as §2
Low inflammation in the livers was determined by the expression level of TNF-α measured by real time PCR using a commercial available tracer.
as §3
Treatment was commended following 10 weeks HFD and was given as a once daily intraperitoneal given 5 days a week (Monday-Friday) for 6 weeks. […]

terminal half time (t½) of test item, times longer than the control peptide ([1]; single intravenous dosing): up to 4.8 times | half-life ([1]; 2 mg/kg): 9.16 min | half-life ([1]; 6 mg/kg): 19.8 min | half-life ([1]; 10 mg/kg): 28.3 min | half-life ([2]; 0.1 mg/kg): 3.18 min | half-life ([2]; 1 mg/kg): 2.87 min | half-life ([2]; 10 mg/kg): 5.85 min
Molecule: AMVSEFLKQAWFIENEEQEYVQTLKSSKGGPGSAVSPYPTFNPSS [Test Item A]

half-life ([1]; 1 mg/kg): 5.57 min | half-life ([1]; 3 mg/kg): 5.69 min | half-life ([1]; 10 mg/kg): 5.86 min
Molecule: AMVSEFLKQAWFIENEEQEYVQTLKSSKGGPGSAVSPYPTFNPSSDV [control peptide, reference compound]

B1: AnxA1: full length Annexin A1 protein (Homo sapiens, SEQ ID NO:1) (protein, listed as Homo Sapiens)
chain: MAMVSEFLKQAWFIENEEQEYVQTVKSSKGGPGSAVSPYPTFNPSSDVAALHKAIMVKGVDEATIIDILTKRNNAQRQQIKAAYLQETGKPLDETLKKALTGHLEEVVLALLKTPAQFDADELRAAMKGLGTDEDTLIEILASRTNKEIRDINRVYREELKRDLAKDITSDTSGDFRNALLSLAKGDRSEDFGVNEDLADSDARALYEAGERRKGTDVNVFNTILTTRSYPQLRRVFQKYTKYSKHDMNKVLDLELKGDIEKCLTAIVKCATSKPAFFAEKLHQAMKGVGTRHKALIRIMVSRSEIDMNDIKAFYQKMYGISLCQAILDETKGDYEKILVALCGGN
Bodyweight, mean value per group [3]: 32.5 g | Liver Weight, mean value per group [3]: 2.0 g | ALT (blood alanine aminotransferase) [4]: 100 u/L | Relative expression levels of TNF-α with the mean expression in group B (vehicle) set to 1 (TNF-α): 1.17±023
